Experimental data from patent US6780875B2, “Quinoline-4-carboxamide derivatives as NK-3 and NK-2 receptor antagonists” (SmithKline Beecham S.p.A., priority 1998, dated 2004).
Where a name gives a salt, the structure may show the parent alone.

Compound | melting point
CC(C)[C@H](NC(=O)c1c(CN2CCN(C(=O)CCC(=O)O)CC2)c(-c2ccccc2)nc2ccccc12)c1ccccc1 [Example 85, 4-{4-[4-((S)-2-Methyl-1-phenyl-propylcarbamoyl)-2-phenyl-quinolin-3-ylmethyl]-piperazin-1-yl}-4-oxo-butyric acid] | 173 to 175 °C
C[C@H](NC(=O)c1c(CN2CCN(c3c(N4CCCC4)c(=O)c3=O)CC2)c(-c2ccccc2)nc2ccccc12)C1CCCCC1 [Example 72, 3-[4-(3,4-Dioxo-2-pyrrolidin-1-yl-cyclobut-1-enyl)-piperazin-1-ylmethyl]-2-phenyl-quinoline-4-carboxylic acid ((S)-1-cyclohexyl-ethyl)-amide] | 170 to 180 °C
CC[C@H](NC(=O)c1c(CN2CCC(N3CCCCC3)CC2)c(-c2ccccc2)nc2c(Br)c(OC)ccc12)c1ccccc1 [Example 66, 3-[1,4′]Bipiperidinyl-1′-ylmethyl-8-bromo-7-methoxy-2-phenyl-quinoline-4-carboxylic acid ((S)-1-phenyl-propyl)-amide] | 156 to 160 °C
CC[C@H](NC(=O)c1c(CN2CCC(N3CCCCC3)CC2)c(-c2ccccc2)nc2c(Cl)c(O)ccc12)c1ccccc1 [Example 89, 3-[1,4′]Bipiperidinyl-1′-ylmethyl-8-chloro-7-hydroxy-2-phenyl-quinoline-4-carboxylic acid ((S)-1-phenyl-propyl)-amide] | 209 to 216 °C (dec.)
C[C@H](NC(=O)c1c(CN2CCN(C(=O)c3ccccc3)CC2)c(-c2ccccc2)nc2ccccc12)C1CCCCC1 [Example 24, 2-Phenyl-3-[4-(1-phenyl-methanoyl)-piperazin-1-ylmethyl]-quinoline-4-carboxylic acid ((S)-1-cyclohexyl-ethyl)-amide] | 150 to 152 °C
CC[C@H](NC(=O)c1c(CN2CCC(N3CCC(O)CC3)CC2)c(-c2ccccc2)nc2ccccc12)c1ccccc1 [Example 18, 3-(4-Hydroxy-[1,4′]bipiperidinyl-1′-ylmethyl)-2-phenyl-quinoline-4-carboxylic acid ((S)-1-phenyl-propyl)-amide] | 166 to 168 °C
CC[C@H](NC(=O)c1c(CN2CCN(C(=O)c3ccccc3)CC2)c(-c2ccccc2)nc2ccccc12)c1ccccc1 [Example 31, 2-Phenyl-3-[4-(1-phenyl-methanoyl)-piperazin-1-ylmethyl]-quinoline-4-carboxylic acid ((S)-1-phenyl-propyl)-amide] | 180 to 182 °C
CCN1CCN(Cc2c(-c3ccccc3)nc3ccccc3c2C(=O)N[C@@H](C)C2CCCCC2)CC1 (as salt: HCl) [Example 37, 3-(4-Ethyl-piperazin-1-ylmethyl)-2-phenyl-quinoline-4-carboxylic acid ((S)-1-cyclohexyl-ethyl)-amide] | 188 to 190 °C
C[C@H](NC(=O)c1c(CN2CCN(C(=O)CN3CCN(C)CC3)CC2)c(-c2ccccc2)nc2ccccc12)C1CCCCC1 [Example 48, 3-{4-[2-(4-Methyl-piperazin-1-yl)-ethanoyl]-piperazin-1-ylmethyl}-2-phenyl-quinoline-4-carboxylic acid ((S)-1-cyclohexyl-ethyl)-amide] | 162 to 163 °C
CCN(CC)CCC(=O)N1CCN(Cc2c(-c3ccccc3)nc3ccccc3c2C(=O)N[C@H](c2ccccc2)C(C)C)CC1 [Example 80, 3-[4-(3-Diethylamino-propanoyl)-piperazin-1-ylmethyl]-2-phenyl-quinoline-4-carboxylic acid ((S)-2-methyl-1-phenyl-propyl)-amide] | 120 to 125 °C
CC[C@H](NC(=O)c1c(CN2CCN(CCO)CC2)c(-c2ccccc2)nc2ccccc12)c1ccccc1 [Example 28, 3-[4-(2-Hydroxy-ethyl)-piperazin-1-ylmethyl]-2-phenyl-quinoline-4-carboxylic acid ((S)-1-phenyl-propyl)-amide] | 142 to 144 °C
C[C@H](NC(=O)c1c(CN2CCOCC2)c(-c2ccccc2)nc2ccccc12)C1CCCCC1 [Example 54, 3-Morpholin-4-ylmethyl-2-phenyl-quinoline-4-carboxylic acid ((S)-1-cyclohexyl-ethyl)-amide] | 178 to 180 °C
C[C@H](NC(=O)c1c(CN2CCC(C(N)=O)CC2)c(-c2ccccc2)nc2ccccc12)C1CCCCC1 [Example 36, 3-(4-Carbamoyl-piperidin-1-ylmethyl)-2-phenyl-quinoline-4-carboxylic acid ((S)-1-cyclohexyl-ethyl)-amide] | 219 to 221 °C
CC[C@H](NC(=O)c1c(CN2CCC3(CC2)C(=O)NCN3c2ccccc2)c(-c2ccccc2)nc2ccccc12)c1ccccc1 | 242 to 245 °C
CNC(=NC#N)N1CCN(Cc2c(-c3ccccc3)nc3ccccc3c2C(=O)N[C@@H](C)C2CCCCC2)CC1 [Example 73, 3-[4-(-1-Cyanoimino-1-methylamino-methyl)-piperazin-1-ylmethyl]-2-phenyl-quinoline-4-carboxylic acid ((S)-1-cyclohexyl-ethyl)amide] | 175 to 180 °C
C[C@H](NC(=O)c1c(CN2CCN(C(=O)CN(C)C)CC2)c(-c2ccccc2)nc2ccccc12)C1CCCCC1 [Example 46, 3-[4-(2-Dimethylamino-ethanoyl)-piperazin-1-ylmethyl]-2-phenyl-quinoline-4-carboxylic acid ((S)-1-cyclohexyl-ethyl)-amide] | 173 to 175 °C
COc1ccc2c(C(=O)N[C@@H](C)C3CCCCC3)c(CN3CCC(N4CCCCC4)CC3)c(-c3ccccc3)nc2c1 [Example 88, 3-[1,4′]Bipiperidinyl-1′-ylmethyl-7-methoxy-2-phenyl--quinoline-4-carboxylic acid ((S)-1-cyclohexyl-ethyl)-amide] | 139 to 144 °C (dec.)
C[C@H](NC(=O)c1c(CN2CCN(CCO)CC2)c(-c2ccccc2)nc2ccccc12)C1CCCCC1 [Example 29, 3-[4-(2-Hydroxy-ethyl)-piperazin-1-ylmethyl]-2-phenyl-quinoline-4-carboxylic acid ((S)-1-cyclohexyl-ethyl)-amide] | 95 to 105 °C
CC[C@H](NC(=O)c1c(C(c2ccccc2)(N2CCCCC2)N(C)C(C)=O)c(-c2ccccc2)nc2ccccc12)c1ccccc1 (stereo partly drawn) [Example 11, 3-[(Acetyl-methyl-amino)-phenyl-piperidin-1-ylmethyl]-2-phenyl-quinoline-4-carboxylic acid ((S)-1-phenyl-propyl)-amide] | 100 °C (dec.)

More lines, now with the values ahead:

melting point | Compound
152 to 154 °C | C[C@H](NC(=O)c1c(CN2CCN(c3ccccn3)CC2)c(-c2ccccc2)nc2ccccc12)C1CCCCC1 [Example 59, 2-Phenyl-3-(4-pyridin-2-yl-piperazin-1-ylmethyl)-quinoline-4-carboxylic acid ((S)-1-cyclohexyl-ethyl)-amide]
107 to 111 °C (dec.) | CC[C@H](NC(=O)c1c(CN2CCN(S(=O)(=O)N(C)C)CC2)c(-c2ccccc2)nc2ccccc12)c1ccccc1 [Example 91, 3-(4-Dimethylsulfamoyl-piperazin-1-ylmethyl)-2-phenyl-quinoline-4-carboxylic acid ((S)-1-phenyl-propyl)-amide]
208 to 210 °C | C[C@H](NC(=O)c1c(CN2CCC(N3CCCCC3)CC2)c(-c2ccccc2)nc2ccccc12)c1ccccc1 (as salt: HCl) [Example 30, 3-[1,4′]Bipiperidinyl-1′-ylmethyl-2-phenyl-quinoline-4-carboxylic acid ((S)-1-phenyl-ethyl)-amide]
130 to 140 °C | C[C@H](NC(=O)c1c(CN2CCN(C(=NS(C)(=O)=O)N3CCCC3)CC2)c(-c2ccccc2)nc2ccccc12)C1CCCCC1 [Example 84, 3-[4-(1-Methanesulfonylimino-1-pyrrolidin-1-yl-methyl)-piperazin-1-ylmethyl]-2-phenyl-quinoline-4-carboxylic acid ((S)-1-cyclohexyl-ethyl)-amide]
150 to 160 °C | C[C@H](NC(=O)c1c(CN2CCC(N3CCC(O)CC3)CC2)c(-c2ccccc2)nc2ccccc12)C1CCCCC1 [Example 43, 3-(4-Hydroxy-[1,4′]bipiperidinyl-1′-ylmethyl)-2-phenyl-quinoline-4-carboxylic acid ((S)-1-cyclohexyl-ethyl)-amide]
176 to 179 °C | C[C@H](NC(=O)c1c(CN2CCN(Cc3ccccc3)CC2)c(-c2ccccc2)nc2ccccc12)C1CCCCC1 (as salt: HCl)
114 to 120 °C | CC[C@H](NC(=O)c1c(CN2C[C@@H](C)N[C@@H](C)C2)c(-c2ccccc2)nc2ccccc12)c1ccccc1 [Example 60, 3-((3R,5S)-3,5-Dimethyl-piperazin-1-ylmethyl)-2-phenyl-quinoline-4-carboxylic acid ((S)-1-phenyl-propyl)-amide]
133 °C (dec.) | CC[C@H](NC(=O)c1c(CN2CCN(S(N)(=O)=O)CC2)c(-c2ccccc2)nc2ccccc12)c1ccccc1 [Example 90, 2-Phenyl-3-(4-sulfamoyl-piperazin-1-ylmethyl)-quinoline-4-carboxylic acid ((S)-1-phenyl-propyl)-amide]
126 to 128 °C | C[C@H](NC(=O)c1c(CN2CCN(CCOCCO)CC2)c(-c2ccccc2)nc2ccccc12)C1CCCCC1 [Example 20, 3-{4-[2-(2-Hydroxy-ethoxy)-ethyl]-piperazin-1-ylmethyl}-2-phenyl-quinoline-4-carboxylic acid ((S)-1-cyclohexyl-ethyl)-amide]
209 to 211 °C | C[C@H](NC(=O)c1c(CN2CCN(C(=O)c3ccccc3C(=O)O)CC2)c(-c2ccccc2)nc2ccccc12)C1CCCCC1 [Example 87, 2-(1-{4-[4-((S)-1-Cyclohexyl-ethylcarbamoyl)-2-phenyl-quinolin-3-ylmethyl]-piperazin-1-yl}-methanoyl)-benzoic acid]
125 to 126 °C | CC[C@H](NC(=O)c1c(CN2CCN(c3ccccn3)CC2)c(-c2ccccc2)nc2ccccc12)c1ccccc1 [Example 56, 2-Phenyl-3-(4-pyridin-2-yl-piperazin-1-ylmethyl)-quinoline-4-carboxylic acid ((S)-1-phenyl-propyl)-amide]
135 to 137 °C | C[C@H](NC(=O)c1c(CN2CCC(N3CCOCC3)CC2)c(-c2ccccc2)nc2ccccc12)C1CCCCC1 [Example 42, 3-(4-Morpholin-4-yl-piperidin-1-ylmethyl)-2-phenyl-quinoline-4-carboxylic acid ((S)-1-cyclohexyl-ethyl)-amide]
